Article PMC10169810, “Ligand-induced activation and G protein coupling of prostaglandin F2α receptor” (Nature Communications, 2023)
Where “and” joins values, the source holds several entries; their conditions need not be identical. Equal values may be shown once. Entries after “also recorded” stand apart in the source; their conditions may differ.

Experiments:
Type in all cases: cell-based
human FP (WT) = target: T1, human FP (WT) (Homo sapiens, UniProt P43088); experiment: IP-One (IP1) accumulation assay, wild-type FP
T1 construct: Flag; expressed in transfected cells; host or cells: AD293 cells
Method: (§1) IP-One production was measured using the IP-One HTRF kit (Cisbio)[50]. Briefly, AD293 cells (Agilent) were grown to a density of 400,000–500,000 cells per mL and then […] with separate plasmids at a suitable concentration. The culture was collected by centrifugation 24 h after incubation at 37 °C in 5% CO2 with a Stimulation Buffer. The cell suspension was then dispensed in a white 384-well plate at a volume of 7 μl per well before adding 7 μl of ligands. The mixture was incubated for 1 h at 37 °C. IP-One-d2 and anti-IP-One Cryptate dissolved in Lysis Buffer (3 μl each) were subsequently added and incubated for 15-30 min at room temperature before measurement. Intracellular IP-One measurement was carried out with the IP-One HTRF kit and EnVision multi-plate reader (PerkinElmer) according to the manufacturer’s instructions. Data were normalized to the baseline response of the ligand. pEC50 Emin, and Emax for each curve were calculated by GraphPad Prism 8.0. ∆pEC50 equals pEC50 of agonists to specific Mutant minus pEC50 of agonists to WT. Data are presented as mean values ± SEM; n = 3 independent samples; n.s. no significant; *p < 0.05; **p < 0.01; ***p < 0.001.

FP S33A = target: T2, FP S33A (Homo sapiens, UniProt P43088, S33A); experiment: IP-One accumulation assay, FP S33A mutant
T2 construct: Flag; expressed in transfected cells; host or cells: AD293 cells
Method: as §1

FP H81A = target: T3, FP H81A (Homo sapiens, UniProt P43088, H81A); experiment: IP-One accumulation assay, FP H81A mutant; details: H81 mutated to alanine vs WT FP
T3 construct: Flag; expressed in transfected cells; host or cells: AD293 cells
Method: as §1

FP Y92A = target: T4, FP Y92A (Homo sapiens, UniProt P43088, Y92A); experiment: IP-One accumulation assay, FP Y92A mutant; details: Y92 mutant (alanine) vs WT FP
T4 construct: Flag; expressed in transfected cells; host or cells: AD293 cells
Method: as §1

FP M115A = target: T5, FP M115A (Homo sapiens, UniProt P43088, M115A); experiment: IP-One accumulation assay, FP M115A mutant
T5 construct: Flag; expressed in transfected cells; host or cells: AD293 cells
Method: as §1

FP S118A = target: T6, FP S118A (Homo sapiens, UniProt P43088, S118A); experiment: IP-One accumulation assay, FP S118A mutant; details: S118A mutant vs WT FP; IP1 accumulation, AD293 cells; single values of n = 3 independent samples
T6 construct: Flag; expressed in transfected cells; host or cells: AD293 cells
Method: as §1

FP T184A = target: T7, FP T184A (Homo sapiens, UniProt P43088, T184A); experiment: IP-One accumulation assay, FP T184A mutant; details: T184 mutant (alanine) vs WT FP
T7 construct: Flag; expressed in transfected cells; host or cells: AD293 cells
Method: as §1

FP F205A = target: T8, FP F205A (Homo sapiens, UniProt P43088, F205A); experiment: IP-One accumulation assay, FP F205A mutant; details: F205 to alanine vs WT FP
T8 construct: Flag; expressed in transfected cells; host or cells: AD293 cells
Method: as §1

FP W262A = target: T9, FP W262A (Homo sapiens, UniProt P43088, W262A); experiment: IP-One accumulation assay, FP W262A mutant; details: W262 to alanine vs WT FP
T9 construct: Flag; expressed in transfected cells; host or cells: AD293 cells
Method: as §1

FP F265A = target: T10, FP F265A (Homo sapiens, UniProt P43088, F265A); experiment: IP-One accumulation assay, FP F265A mutant
T10 construct: Flag; expressed in transfected cells; host or cells: AD293 cells
Method: as §1

FP I290A = target: T11, FP I290A (Homo sapiens, UniProt P43088); experiment: IP-One accumulation assay, FP I290A mutant; details: L290 to alanine vs WT FP
T11 construct: Flag; expressed in transfected cells; host or cells: AD293 cells
Method: as §1

FP R291A = target: T12, FP R291A (Homo sapiens, UniProt P43088, R291A); experiment: IP-One accumulation assay, FP R291A mutant
T12 construct: Flag; expressed in transfected cells; host or cells: AD293 cells
Method: as §1

FP T294A = target: T13, FP T294A (Homo sapiens, UniProt P43088, T294A); experiment: IP-One accumulation assay, FP T294A mutant
T13 construct: Flag; expressed in transfected cells; host or cells: AD293 cells
Method: as §1

FP Q297A = target: T14, FP Q297A (Homo sapiens, UniProt P43088, Q297A); experiment: IP-One accumulation assay, FP Q297A mutant; details: Q297A mutant vs WT FP; IP1 accumulation, AD293 cells; single values of n = 3 independent samples
T14 construct: Flag; expressed in transfected cells; host or cells: AD293 cells
Method: as §1

FP L123A = target: T15, FP L123A (Homo sapiens, UniProt P43088, L123A); experiment: IP-One accumulation assay, FP L123A mutant; details: L123A mutant vs WT FP
T15 construct: Flag; expressed in transfected cells; host or cells: AD293 cells
Method: as §1

FP L213A = target: T16, FP L213A (Homo sapiens, UniProt P43088, L213A); experiment: IP-One accumulation assay, FP L213A mutant; details: L213A mutant vs WT FP
T16 construct: Flag; expressed in transfected cells; host or cells: AD293 cells
Method: as §1

FP mutant of E132 = target: T17, FP mutant of E132 (Homo sapiens, UniProt P43088, E132A); experiment: IP-One accumulation assay, FP E132 mutant; details: E132 mutant vs WT FP
T17 construct: Flag; expressed in transfected cells; host or cells: AD293 cells
Method: as §1

FP R133A = target: T18, FP R133A (Homo sapiens, UniProt P43088, R133A); experiment: IP-One accumulation assay, FP R133A mutant; details: for IP1 accumulation response to PGF2α (dose-response source data): FP R133A, replicate values
T18 construct: expressed in transfected cells; host or cells: AD293 cells
Method: as §1

FP mutant of C134 = target: T19, FP mutant of C134 (Homo sapiens, UniProt P43088, C134A); experiment: IP-One accumulation assay, FP C134 mutant; details: C134 mutant vs WT FP
T19 construct: expressed in transfected cells; host or cells: AD293 cells
Method: as §1

FP Q250A = target: T20, FP Q250A (Homo sapiens, UniProt P43088, Q250A); experiment: IP-One accumulation assay, FP Q250A mutant; details: Q250A mutant vs WT FP
T20 construct: expressed in transfected cells; host or cells: AD293 cells
Method: as §1

FP R308A = target: T21, FP R308A (Homo sapiens, UniProt P43088, R308A); experiment: IP-One accumulation assay, FP R308A mutant; details: R308A mutant vs WT FP
T21 construct: expressed in transfected cells; host or cells: AD293 cells
Method: as §1

T12 sequence (P43088 whole entry R291A): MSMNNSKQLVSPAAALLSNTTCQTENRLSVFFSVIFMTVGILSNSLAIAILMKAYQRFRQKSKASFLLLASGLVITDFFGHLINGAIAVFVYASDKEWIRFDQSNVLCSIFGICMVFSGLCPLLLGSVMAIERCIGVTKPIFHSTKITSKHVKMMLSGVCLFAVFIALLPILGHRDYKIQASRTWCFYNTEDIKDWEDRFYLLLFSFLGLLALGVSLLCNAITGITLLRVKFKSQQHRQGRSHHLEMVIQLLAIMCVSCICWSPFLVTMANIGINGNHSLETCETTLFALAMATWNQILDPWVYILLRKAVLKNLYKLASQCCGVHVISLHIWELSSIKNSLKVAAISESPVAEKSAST
T10 sequence (P43088 whole entry F265A): as the sequence (P43088 whole entry R291A) above, with F265A, A291R counted along it
T6 sequence (P43088 whole entry S118A): as the sequence (P43088 whole entry R291A) above, with S118A, A291R counted along it
T13 sequence (P43088 whole entry T294A): as the sequence (P43088 whole entry R291A) above, with A291R, T294A counted along it
T18 sequence (P43088 whole entry R133A): as the sequence (P43088 whole entry R291A) above, with R133A, A291R counted along it
T1 sequence (P43088 whole entry): as the sequence (P43088 whole entry R291A) above, with A291R counted along it
T2 sequence (P43088 whole entry S33A): as the sequence (P43088 whole entry R291A) above, with S33A, A291R counted along it
T5 sequence (P43088 whole entry M115A): as the sequence (P43088 whole entry R291A) above, with M115A, A291R counted along it
T14 sequence (P43088 whole entry Q297A): as the sequence (P43088 whole entry R291A) above, with A291R, Q297A counted along it
T15 sequence (P43088 whole entry L123A): as the sequence (P43088 whole entry R291A) above, with L123A, A291R counted along it
T20 sequence (P43088 whole entry Q250A): as the sequence (P43088 whole entry R291A) above, with Q250A, A291R counted along it
T9 sequence (P43088 whole entry W262A): as the sequence (P43088 whole entry R291A) above, with W262A, A291R counted along it
T19 sequence (P43088 whole entry C134A): as the sequence (P43088 whole entry R291A) above, with C134A, A291R counted along it
T11 sequence (P43088 whole entry L290A): as the sequence (P43088 whole entry R291A) above, with L290A, A291R counted along it
T4 sequence (P43088 whole entry Y92A): as the sequence (P43088 whole entry R291A) above, with Y92A, A291R counted along it
T16 sequence (P43088 whole entry L213A): as the sequence (P43088 whole entry R291A) above, with L213A, A291R counted along it
T17 sequence (P43088 whole entry E132A): as the sequence (P43088 whole entry R291A) above, with E132A, A291R counted along it
T21 sequence (P43088 whole entry R308A): as the sequence (P43088 whole entry R291A) above, with A291R, R308A counted along it
T7 sequence (P43088 whole entry T184A): as the sequence (P43088 whole entry R291A) above, with T184A, A291R counted along it
T8 sequence (P43088 whole entry F205A): as the sequence (P43088 whole entry R291A) above, with F205A, A291R counted along it
T3 sequence (P43088 whole entry H81A): as the sequence (P43088 whole entry R291A) above, with H81A, A291R counted along it

CCCCC[C@H](O)/C=C/[C@@H]1[C@@H](C/C=C\CCCC(=O)O)[C@@H](O)C[C@H]1O [PGF2α, Prostaglandin F2α]
IP1 accumulation response to PGF2α (dose-response source data) (human FP (WT); log[PGF2α] -5, replicate values): 101.79 and 97.30 and 100.89 | IP1 accumulation response to PGF2α (dose-response source data) (human FP (WT); log[PGF2α] -6, replicate values): 98.67 and 93.94 and 92.75 | IP1 accumulation response to PGF2α (dose-response source data) (human FP (WT); log[PGF2α] -7, replicate values): 95.13 and 96.40 and 98.46 | IP1 accumulation response to PGF2α (dose-response source data) (human FP (WT); log[PGF2α] -8, replicate values): 91.30 and 99.44 and 87.48 | IP1 accumulation response to PGF2α (dose-response source data) (human FP (WT); log[PGF2α] -9, replicate values): 86.14 and 76.33 and 80.44 | IP1 accumulation response to PGF2α (dose-response source data) (human FP (WT); log[PGF2α] -10, replicate values): 72.71 and 62.76 and 60.52 | IP1 accumulation response to PGF2α (dose-response source data) (human FP (WT); log[PGF2α] -11, replicate values): 49.52 and 56.92 and 52.06 | IP1 accumulation response to PGF2α (dose-response source data) (human FP (WT); log[PGF2α] -14, replicate values): 42.81 and 48.67 and 43.43 | ∆pEC50 (pEC50 of agonist to mutant minus pEC50 to WT) (FP S33A; S33A mutant vs WT FP, IP1 accumulation, AD293 cells, single values of n = 3 independent samples): -1.0 and -1.1 and -0.8 | effect of mutation on agonist affinity / potency (in words) (FP S33A; S33 to alanine vs WT FP): significantly impaired the affinity | reduction of activity to FP by mutation (FP H81A): over 1000 folds | effect of mutation on agonist activity / potency (in words) (FP Y92A): decreased activity | ∆pEC50 (pEC50 of agonist to mutant minus pEC50 to WT) (FP M115A; M115A mutant vs WT FP, IP1 accumulation, AD293 cells, single values of n = 3 independent samples): -2.0 and -2.1 and -1.9 | decrease of affinity by mutation (FP M115A; M115 mutated to alanine vs WT FP): approximately 100 fold | ∆pEC50 (pEC50 of agonist to mutant minus pEC50 to WT) (FP S118A): 0.3 and 0.0 and 0.2 | effect of mutation on agonist activity / potency (in words) (FP T184A): decreased activity | effect of mutation on agonist affinity (in words) (FP F205A): significantly impaired the affinity | effect of mutation on agonist affinity / induced activation (in words) (FP W262A): significantly impaired the affinity | ∆pEC50 (pEC50 of agonist to mutant minus pEC50 to WT) (FP F265A; F265A mutant vs WT FP, IP1 accumulation, AD293 cells, single values of n = 3 independent samples): -2.8 and -2.7 | effect of mutation on agonist affinity (in words) (FP F265A; F265 to alanine vs WT FP): significantly impaired the affinity | effect of mutation on agonist affinity (in words) (FP I290A): significantly impaired the affinity | ∆pEC50 (pEC50 of agonist to mutant minus pEC50 to WT) (FP R291A; R291A mutant vs WT FP, IP1 accumulation, AD293 cells, single values of n = 3 independent samples): -2.6 and -2.4 and -2.5 | effect of mutation on agonist activity / potency (in words) (FP R291A; R291 mutant (alanine) vs WT FP): decreased activity | ∆pEC50 (pEC50 of agonist to mutant minus pEC50 to WT) (FP T294A; T294A mutant vs WT FP, IP1 accumulation, AD293 cells, single values of n = 3 independent samples): -2.2 and -2.3 and -2.0 | effect of mutation on agonist affinity / potency (in words) (FP T294A; T294 to alanine vs WT FP): significantly impaired the affinity | ∆pEC50 (pEC50 of agonist to mutant minus pEC50 to WT) (FP Q297A): -1.9 and -1.8 | effect of mutation on agonist potency (in words) (FP L123A): decreased potency | effect of mutation on agonist potency (in words) (FP L213A): decreased potency | effect of mutation on agonist activity (in words) (FP mutant of E132): decreased PGF2α activity | IP1 accumulation response to PGF2α (dose-response source data) (FP R133A; log[PGF2α] -5): 21.57 and 17.44 and 18.01 | IP1 accumulation response to PGF2α (dose-response source data) (FP R133A; log[PGF2α] -6): 20.73 and 14.37 and 13.23 | IP1 accumulation response to PGF2α (dose-response source data) (FP R133A; log[PGF2α] -7): 14.89 and 14.23 and 16.03 | IP1 accumulation response to PGF2α (dose-response source data) (FP R133A; log[PGF2α] -8): 16.86 and 14.19 and 10.91 | IP1 accumulation response to PGF2α (dose-response source data) (FP R133A; log[PGF2α] -9): 17.57 and 19.43 and 13.59 | IP1 accumulation response to PGF2α (dose-response source data) (FP R133A; log[PGF2α] -10): 9.93 and 11.01 and 11.54 | IP1 accumulation response to PGF2α (dose-response source data) (FP R133A; log[PGF2α] -11): 5.43 and 6.41 and 3.41 | IP1 accumulation response to PGF2α (dose-response source data) (FP R133A; log[PGF2α] -14): 0.27 and 6.69 and 6.06 | effect of mutation on agonist activity (in words) (FP R133A; R133 / R133A mutant vs WT FP): decreased PGF2α activity; also recorded: loss of PGF2α activity | effect of mutation on agonist activity (in words) (FP mutant of C134): decreased PGF2α activity | effect of mutation on agonist activity (in words) (FP Q250A): loss of PGF2α activity | effect of mutation on agonist activity (in words) (FP R308A): loss of PGF2α activity
